Measurements published in patent US10273242B2, “Compound inhibiting activities of BTK and/or JAK3 kinases” (BEIJING HANMI PHARMACEUTICAL CO., LTD., priority 2013, dated 2019).

What was measured:
[1] = system: p-PLCγ2 (pY1217) in Ramos cells; experiment: p-PLCγ2 inhibition assay in Ramos cells (Western blot); assay type: cell-based; conditions: compound 1 hour, anti-human IgM stimulation
Protocol: Ramos cells (purchased from the Beijing Union Medical College) with starvation culture for 1 hour were treated with the compounds of the present invention for 1 hour, and then rinsed with PBS buffer (pH 7.2) to remove the compounds. Then they were resuspended in 100 μL of serum-free culture medium containing 1 μM of anti-human IgM F(ab′)2 (purchased from SBA company, No.: 2022-01) and stimulated on ice for 10 minutes. The cells were rinsed with PBS buffer (pH 7.2) to remove IgM and resuspended in 100 μL of protein lysis buffer (purchased from Sigma, No.: C2978), and then prepared and quantified the protein sample. 100 μg of the protein sample were taken and loaded on polyacrylamide gels for electrophoresis under 200V of voltage. After electrophoresis, protein blots were transferred to a PVDF membrane. […] The protein expression was detected by coloration using ECL substrate (purchased from GE, No.: RPN2109).

JAK3 kinase = biological target: T1, JAK3 kinase (Homo sapiens, UniProt P52333); experiment: JAK3 kinase activity inhibition assay (ADP-Glo); assay type: biochemical; conditions: ATP 10 μM
T1 construct: purchased SignalChem J03-11G
Protocol: The JAK3 kinase (purchased from SignalChem, No.: J03-11G) was diluted with reaction buffer (40 mM Tris-HCl, pH 7.5; 20 mM MgCl2, 0.1 mg/ml BSA; 1 mM DTT) to 2 times of the final concentration (which is 0.5 ng/μL) and added with 5 μL/well to a 96-well plate. The compounds of the present invention were serial diluted with deionized water to four times (i.e., 40 μM, 4 μM, 0.4 μM, 80 nM, 16 nM, 3.2 nM, respectively) of the final concentrations (10 μM, 1 μM, 0.1 μM, 20 nM, 4 nM, 0.8 nM, respectively), and added with 2.5 μL/well to the test wells of the 96-well plate. After incubation at 25° C. for 10 minutes, 10 μM of ATP (purchased from Promega, No.: V9102) and 0.2 μg/μL of Poly E4Y1 (purchased from Sigma, No.: P0275-25MG) were added at 2.5 μL/well and reacted at 25° C. for 60 minutes. After the reaction was completed, 10 μL of the ADP-Glo reagent (ADP-Glo™ kinase assay kit, purchased from Promega, No.: V9102) was added to each well and reacted at 25° C. for 40 minutes. Then 20 μL of the ADP-Glo kinase detection reagent was added to each well and reacted at 25° C. for 30 minutes. The kinase activity was detected by luminescence using the ADP-Glo kinase assay kit according to the manufacture's instruction, and IC50 values of the compounds of the present invention were calculated.

Lewis rats = experiment: Adjuvant-induced arthritis (AIA) model in rats; assay type: in vivo; conditions: 30 mg/kg and 100 mg/kg orally once a day for 7 days
Protocol: 100 mg of inactivated Mycobacterium tuberculosis (purchased from BD Difco, No.: 231141) accurately weighed and dissolved in 5 mL of incomplete Freund's adjuvant (IFA) (purchased from Sigma, No.: F5506), and then with 5 mL of physiological saline added, was homogeneously emulsified into 10 mg/mL of complete Freund's adjuvant (CFA). […] Rats were evaluated for the severity of arthritis using an established scoring system ranging from 0 to 4 as follows: 0=no evidence of erythema or swelling; 1=slight erythema or swelling of one of the toe joints; 2=erythema or swelling of more than one toe; 3=swelling of the ankle or wrist joint; 4=swelling of all toes including the ankle joint. All four paws of the rat were scored individually, and the highest score was 16.
The paw volumes of the rats were measured by the drainage method using a plethysmometer (Plethysmometer PV-200, Chengdu Taimeng Science and Technology Co., Ltd.) to determine the volumes below the ankle joints (in mL). The rats were measured for paw volumes every other day from day 10 after primary immunization, i.e. day 1 of the administration. […]

BTK kinase = biological target: T2, BTK kinase (Homo sapiens, UniProt Q06187); experiment: BTK kinase activity inhibition assay (ADP-Glo); assay type: biochemical; conditions: ATP 50 μM
T2 construct: purchased Invitrogen PV3363
Protocol: The BTK kinase (purchased from Invitrogen, No.: PV3363) was diluted with reaction buffer (40 mM Tris-HCl, pH 7.5; 20 mM MgCl2, 0.1 mg/ml BSA; 1 mM DTT; 2 mM MnCl2) to 2 times of the final concentration (which is 1.1 ng/μL) and added with 5 μL/well to a 96-well plate. The compounds of the present invention were serial diluted with deionized water to four times (i.e., 40 μM, 4 μM, 0.4 μM, 80 nM, 16 nM, 3.2 nM, respectively) of the final concentrations (10 μM, 1 μM, 0.1 μM, 20 nM, 4 nM, 0.8 nM, respectively), and added at 2.5 μL/well to the test wells of the 96-well plate. After incubation at 25° C. for 10 minutes, ATP (50 μM) (purchased from Promega, No.: V9102) and 0.2 μg/μL of Poly E4Y1 (purchased from Sigma, No.: P0275-25MG) were added with 2.5 μL/well and incubated at 25° C. for 120 minutes. After the reaction was completed, 10 μL of the ADP-Glo reagent (ADP-Glo™ kinase assay kit, purchased from Promega, No.: V9102) was added to each well, and reacted at 25° C. for 40 minutes. Then 20 μL of the ADP-Glo kinase detection reagent was added to each well and reacted at 25° C. for 30 minutes. The kinase activity was detected by luminescence using the ADP-Glo kinase assay kit according to the manufacture's instruction, and IC50 values of the compounds of the present invention were calculated.

T2 sequence (Q06187 whole entry): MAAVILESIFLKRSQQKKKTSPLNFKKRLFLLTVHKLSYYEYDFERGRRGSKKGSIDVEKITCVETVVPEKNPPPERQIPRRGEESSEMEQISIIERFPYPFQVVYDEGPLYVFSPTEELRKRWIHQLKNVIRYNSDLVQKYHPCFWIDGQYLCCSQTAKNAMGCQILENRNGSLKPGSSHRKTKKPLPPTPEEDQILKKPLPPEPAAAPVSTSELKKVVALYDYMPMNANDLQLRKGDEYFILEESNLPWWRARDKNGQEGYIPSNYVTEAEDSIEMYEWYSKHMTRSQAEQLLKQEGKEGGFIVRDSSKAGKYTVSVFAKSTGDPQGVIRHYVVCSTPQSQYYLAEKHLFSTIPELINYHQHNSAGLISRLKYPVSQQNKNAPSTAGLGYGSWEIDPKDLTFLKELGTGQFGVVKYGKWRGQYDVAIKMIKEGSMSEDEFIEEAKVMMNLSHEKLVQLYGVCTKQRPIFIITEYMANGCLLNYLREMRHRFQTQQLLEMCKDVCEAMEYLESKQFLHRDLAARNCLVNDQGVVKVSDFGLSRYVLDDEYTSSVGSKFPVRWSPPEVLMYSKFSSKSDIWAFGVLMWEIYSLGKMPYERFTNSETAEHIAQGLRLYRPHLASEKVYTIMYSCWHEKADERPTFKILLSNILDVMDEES
T1 sequence (P52333 781-1124 limits assumed): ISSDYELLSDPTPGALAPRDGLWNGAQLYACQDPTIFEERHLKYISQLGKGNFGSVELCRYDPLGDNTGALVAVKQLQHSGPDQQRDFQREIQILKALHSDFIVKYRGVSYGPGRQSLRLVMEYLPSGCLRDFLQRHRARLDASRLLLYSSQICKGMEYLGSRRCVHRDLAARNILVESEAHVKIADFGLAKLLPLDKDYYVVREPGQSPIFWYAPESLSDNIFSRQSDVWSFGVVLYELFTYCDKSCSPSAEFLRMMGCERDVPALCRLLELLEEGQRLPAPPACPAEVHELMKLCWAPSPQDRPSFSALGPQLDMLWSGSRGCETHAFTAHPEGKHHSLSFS

Compound: C=CC(=O)N1CC[C@@H](Nc2nc(Nc3cc(C)ns3)nc3ccsc23)C1 [Example 132, (R)-1-(3-((2-((3-methyl-isothiazol-5-yl)amino)thieno[3,2-d]pyrimidin-4-yl)amino)pyrrolidin-1-yl)prop-2-en-1-one]
- inhibition of expression of p-PLCγ2 [1]: significantly inhibit the expressions of p-BTK and p-PLCγ2 in Ramos cells in a dose-dependent manner
- IC50 (JAK3 kinase): ≤ 10 nM
- therapeutic effect on arthritis (arthritis severity scores) (Lewis rats): good therapeutic effect on arthritis in the AIA model at the designed doses
- IC50 (BTK kinase): ≤ 50 nM
